This is an account of results in BindingDB's records for doi:10.1021/jm020871e (University of Bonn, 2002).

The structures appear in SMILES notation.

One may read the EC50 as the concentration needed to bring the measured effect to its halfway point. High values mean weaker potency, low ones greater potency.

Muscarinic acetylcholine receptor M2 (Sus scrofa), sequence (P06199 whole entry, looked up): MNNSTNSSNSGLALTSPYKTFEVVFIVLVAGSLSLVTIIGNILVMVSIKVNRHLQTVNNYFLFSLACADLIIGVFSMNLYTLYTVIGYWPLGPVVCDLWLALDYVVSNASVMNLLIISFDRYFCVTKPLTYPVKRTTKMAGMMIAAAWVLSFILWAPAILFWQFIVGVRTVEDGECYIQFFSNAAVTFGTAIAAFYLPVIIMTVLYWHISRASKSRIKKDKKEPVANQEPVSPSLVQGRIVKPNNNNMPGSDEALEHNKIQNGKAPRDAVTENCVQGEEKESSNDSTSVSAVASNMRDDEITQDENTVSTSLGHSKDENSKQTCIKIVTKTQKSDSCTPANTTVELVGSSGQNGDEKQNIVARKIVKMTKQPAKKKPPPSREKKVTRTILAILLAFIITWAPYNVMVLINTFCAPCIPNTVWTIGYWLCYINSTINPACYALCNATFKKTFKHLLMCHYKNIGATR

This assay concerns the target Muscarinic acetylcholine receptor M2 (Sus scrofa) (UniProt P06199). Put plainly: Binding of [3H]N-methylscopolamine at porcine heart Muscarinic acetylcholine receptor M2 that inhibits the dissociation of [3H]NMS half maximally (pEC50diss) was reported.
In turn, `Cc1ccc2c(c1)C(=O)N(CCC[N+](C)(C)CCCCCC[N+](C)(C)CCCN1C(=O)c3ccccc3C1=O)C2=O` had a concentration giving a half-maximal response (EC50) of 324 nM.
In the case of `Cc1ccc2c(c1)C(=O)N(CCC[N+](C)(C)CCCCCC[N+](C)(C)CCCN1C(=O)c3ccc(C)cc3C1=O)C2=O`, the EC50 came to 170 nM.
As for `CC(C)(CN1C(=O)c2ccccc2C1=O)C[N+](C)(C)CCCCCC[N+](C)(C)CCCN1C(=O)c2ccccc2C1=O`, the concentration giving a half-maximal response (EC50) turned out to be 135 nM.
Then `CC(C)(CN1C(=O)c2ccccc2C1=O)C[N+](C)(C)CCCCCC[N+](C)(C)CC(C)(C)CN1C(=O)c2ccccc2C1=O`, with 178 nM; and `Cc1ccc2c(c1)C(=O)N(CC(C)(C)C[N+](C)(C)CCCCCC[N+](C)(C)CC(C)(C)CN1C(=O)c3ccc(C)cc3C1=O)C2=O`, with 47 nM; and `Cc1ccc2c(c1)C(=O)N(CCC[N+](C)(C)CCCCCC[N+](C)(C)CC(C)(C)CN1C(=O)c3ccc(C)cc3C1=O)C2=O`, with 36 nM.
Compound `Cc1ccc2c(c1)C(=O)N(CC(C)(C)C[N+](C)(C)CCCCCC[N+](C)(C)CCCN1C(=O)c3ccccc3C1=O)C2=O` returned a concentration giving a half-maximal response (EC50) of 55 nM.
In the case of `Cc1ccc2c(c1)C(=O)N(CCC[N+](C)(C)CCCCCC[N+](C)(C)CC(C)(C)CN1C(=O)c3ccccc3C1=O)C2=O`, the EC50 worked out at 71 nM.
